Experimental data reported in ChEMBL document CHEMBL5365509, “Structure-Activity Relationship and Molecular Docking of Quinazolinones Inhibiting Expression of COX-2, IL-1β, iNOS, and TNF-α through NF-κB Pathways” (ACS Med Chem Lett, 2023).
The source made the active and inactive calls. The calls are words filed in the database; no cut-off is given here.

Legend:
[1] = in vitro; settings: mouse
Description: Cytotoxicity against mouse RAW264.7 cells assessed as cell viability at 6.25 uM by MTT assay relative to control

[2] = system: RAW264.7; assay: Anti-inflammatory activity in mouse RAW264.7 assessed as decrease in LPS-induced IL-1beta mRNA expression at 62.5 uM incubated for 16 hrs by RT-PCR analysis; format: functional, cell-based
[3] = system: RAW264.7; assay: Anti-inflammatory activity in mouse RAW264.7 assessed as LPS-induced COX-2 mRNA expression at 62.5 uM incubated for 16 hrs by RT-PCR analysis relative to control; format: functional
[4] = system: RAW264.7; assay: Anti-inflammatory activity in mouse RAW264.7 assessed as LPS-induced IL-1beta mRNA expression at 62.5 uM incubated for 16 hrs by RT-PCR analysis relative to control; format: functional
[5] = system: RAW264.7; assay: Anti-inflammatory activity in mouse RAW264.7 assessed as LPS-induced iNOS mRNA expression at 62.5 uM incubated for 16 hrs by RT-PCR analysis relative to control; format: functional
[6] = system: RAW264.7; assay: Anti-inflammatory activity in mouse RAW264.7 assessed as decrease in LPS-induced COX-2 mRNA expression at 62.5 uM incubated for 16 hrs by RT-PCR analysis; format: functional, cell-based
[7] = system: RAW264.7; assay: Anti-inflammatory activity in mouse RAW264.7 assessed as decrease in LPS-induced TNF-alpha mRNA expression at 62.5 uM incubated for 16 hrs by RT-PCR analysis relative to control; format: functional; design: scale not given: the % may be the effect or the level left
[8] = system: RAW264.7; assay: Anti-inflammatory activity in mouse RAW264.7 assessed as decrease in LPS-induced IL-1beta mRNA expression at 62.5 uM incubated for 16 hrs by RT-PCR analysis relative to control; format: functional; design: scale not given: the % may be the effect or the level left
[9] = system: RAW264.7; assay: Anti-inflammatory activity in mouse RAW264.7 assessed as LPS-induced TNF-alpha mRNA expression at 62.5 uM incubated for 16 hrs by RT-PCR analysis relative to control; format: functional
[10] = system: RAW264.7; assay: Anti-inflammatory activity in mouse RAW264.7 assessed as decrease in LPS-induced IL-1beta mRNA expression incubated for 16 hrs by RT-PCR analysis; format: functional, cell-based; settings: dose 0.1-62.5 µM
[11] = system: RAW264.7; assay: Anti-inflammatory activity in mouse RAW264.7 assessed as decrease in LPS-induced COX-2 mRNA expression incubated for 16 hrs by RT-PCR analysis; format: functional, cell-based; settings: dose 0.1-62.5 µM
[12] = system: RAW264.7; assay: Anti-inflammatory activity in mouse RAW264.7 assessed as decrease in LPS-induced iNOS mRNA expression at 62.5 uM incubated for 16 hrs by RT-PCR analysis relative to control; format: functional; design: scale not given: the % may be the effect or the level left
[13] = system: RAW264.7; assay: Anti-inflammatory activity in mouse RAW264.7 assessed as decrease in LPS-induced COX-2 mRNA expression at 62.5 uM incubated for 16 hrs by RT-PCR analysis relative to control; format: functional; design: scale not given: the % may be the effect or the level left
[14] = system: RAW264.7; assay: Cytotoxicity against mouse RAW264.7 cells assessed as cell viability at 6.25 uM by MTT assay; format: toxicity, cell-based; settings: raw264.7, 6.25 µM

Q: Which results are given for `CC(C)c1nc2ccccc2c(=O)[nH]1`?
A: viability at 6.25 µM ([1]; RAW264.7 cells): > 80%; Activity [2]: Active; Activity [3]: 20.47%; Activity [4]: 14.02%

Q: Which viability at 6.25 µM ([1]; RAW264.7 cells) does the source give for `COc1ccc(-c2nc3ccccc3c(=O)[nH]2)cc1` here?
A: > 80%

Q: What does the source list for `O=c1[nH]cnc2ncccc12`?
A: viability at 6.25 µM ([1]; RAW264.7 cells): > 80%; Activity [5]: 62.82%; Activity [2]: inactive; Activity [6]: inactive

Q: With `Oc1ncnc2cc(Cl)ccc12` as the compound, how does the Activity [7] read?
A: <50%

Q: What about the viability at 6.25 µM ([1]; RAW264.7 cells) of the same compound?
A: > 80%

Q: And the Activity [8]?
A: 10.85%

Q: Which viability at 6.25 µM ([1]; RAW264.7 cells) does the source give for `CCCCCCCCc1nc2ccccc2c(=O)[nH]1` here?
A: > 80%

Q: And the Activity [2]?
A: Active

Q: And the Activity [3]?
A: 11.14%

Q: What about the Activity [9] of the same compound?
A: 44%

Q: What about the Activity [4] of the same compound?
A: 6.92%

Q: What about the Activity [10] of the same compound?
A: Dose-Dependent Effect

Q: What about the Activity [11] of the same compound?
A: Dose-Dependent Effect

Q: Which viability at 6.25 µM ([1]; RAW264.7 cells) does the source give for `CCC(C)c1nc2ccccc2c(=O)[nH]1` (configuration not stated) here?
A: > 80%

Q: What about the Activity [2] of the same compound?
A: Active

Q: What about the Activity [3] of the same compound?
A: 0.5%

Q: What about the Activity [9] of the same compound?
A: 44%

Q: And the Activity [4]?
A: 4.02%

Q: With `Oc1nc(C2CCCCC2)nc2ccccc12` as the compound, how does the viability at 6.25 µM ([1]; RAW264.7 cells) read?
A: > 80%

Q: What about the Activity [3] of the same compound?
A: >80%

Q: What about the Activity [9] of the same compound?
A: 44%

Q: And the Activity [8]?
A: 75.72%

Q: What about the Activity [10] of the same compound?
A: Dose-Dependent Effect

Q: And the Activity [11]?
A: Dose-Dependent Effect

Q: With `O=c1[nH]cnc2ccc(F)cc12` as the compound, how does the Activity [7] read?
A: <50%

Q: And the viability at 6.25 µM ([1]; RAW264.7 cells)?
A: > 80%

Q: And the Activity [8]?
A: 10.85%

Q: For `O=c1[nH]cnc2ccccc12` [QUINAZOLINONE], which viability at 6.25 µM ([1]; raw264.7) is on record?
A: > 80%

Q: With `COc1ccc(-c2nc(O)c3ccccc3n2)cc1` as the compound, how does the Activity [6] read?
A: inactive

Q: And the Activity [4]?
A: <35%

Q: For `O=c1[nH]cnc2cc(F)ccc12`, which Activity [7] is on record?
A: <50%

Q: And the viability at 6.25 µM ([1]; RAW264.7 cells)?
A: > 80%

Q: What about the Activity [8] of the same compound?
A: 10.85%

Q: For `O=c1c2ccccc2ncn1-c1ccccc1`, which Activity [12] is on record?
A: <22%

Q: What about the viability at 6.25 µM ([1]; RAW264.7 cells) of the same compound?
A: > 80%

Q: What about the Activity [13] of the same compound?
A: 28.46%

Q: Which Activity [14] does the source give for `O=c1[nH]c(/C=C/c2ccccc2)nc2ccccc12` here?
A: Toxic

Q: Which results are given for `CC(c1ccccc1)n1cnc2ccccc2c1=O` (configuration not stated)?
A: Activity [12]: <22%; viability at 6.25 µM ([1]; RAW264.7 cells): > 80%; Activity [6]: Active

Q: Which viability at 6.25 µM ([1]; RAW264.7 cells) does the source give for `Cc1cccc(-c2nc(O)c3ccccc3n2)c1` here?
A: > 80%

Q: What about the Activity [3] of the same compound?
A: 3.79%

Q: And the Activity [4]?
A: <35%

Q: What does the source list for `CCCCCCc1nc2ccccc2c(=O)[nH]1`?
A: viability at 6.25 µM ([1]; RAW264.7 cells): > 80%; Activity [4]: 3.1%; Activity [13]: 95%

Q: For `Cc1nc2ccccc2c(=O)[nH]1`, which viability at 6.25 µM ([1]; RAW264.7 cells) is on record?
A: > 80%

Q: And the Activity [3]?
A: 60.96%

Q: And the Activity [4]?
A: 58.79%

Q: With `O=c1[nH]c(-c2cccc(C(F)(F)F)c2)nc2ccccc12` as the compound, how does the viability at 6.25 µM ([1]; RAW264.7 cells) read?
A: > 80%

Q: What about the Activity [5] of the same compound?
A: 13.98%

Q: And the Activity [6]?
A: inactive

Q: What about the Activity [4] of the same compound?
A: <35%

Q: Which Activity [12] does the source give for `Cn1cnc2ccccc2c1=O` here?
A: <22%

Q: What about the viability at 6.25 µM ([1]; RAW264.7 cells) of the same compound?
A: > 80%

Q: And the Activity [13]?
A: 28.85%
